Measured values as given in patent publication US10954269B2, “Anti-inflammatory tripeptides” (Dr. August Wolff Gmbh & Co. KG Arzneimittel, priority 2013, dated 2021).

Assays:
[1] = system: primary human T-cells; assay: Cytokine secretion on protein level in activated primary human T-cells (13-plex FACS / Luminex, supernatant); format: cell-based; conditions: for IL-1 cytokine concentration / IL-2 cytokine concentration / IL-4 cytokine concentration / IL-5 cytokine concentration / IL-6 cytokine concentration / IL-9 cytokine concentration / IL-10 cytokine concentration / IL-12p70 cytokine concentration / IL-13 cytokine concentration / IL-17 cytokine concentration / IL-22 cytokine concentration / TNF-α cytokine concentration / INF-α cytokine concentration: substance 10^−9M
Summary of the method: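 Primary T-cells from peripheral blood of healthy volunteers, or HaCaT cells, were activated with PMA/Ionomycin or IFN-γ for 48 h and treated with tripeptides. Supernatants were collected 48 h and 72 h after stimulation and cytokines (IL-1, IL-2, IL-6, IL-12p70, IL-17, IFN-γ, TNF-α) were measured by 13-plex FACS.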

[2] = system: primary murine T-cells; assay: Cytokine secretion on protein level in activated primary murine T-cells (13-plex FACS / Luminex, supernatant); format: cell-based, C57BL/6 mice; conditions: for IL-1 cytokine concentration / IL-2 cytokine concentration / IL-4 cytokine concentration / IL-5 cytokine concentration / IL-6 cytokine concentration / IL-10 cytokine concentration / IL-13 cytokine concentration / IL-17 cytokine concentration / IL-21 cytokine concentration / IL-22 cytokine concentration / IL-27 cytokine concentration / TNF-α cytokine concentration / IFN-γ cytokine concentration: substance 10^−9M
Summary of the method: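 T-cells from secondary lymphatic organs of naïve C57BL/6 mice, stimulated with PMA/Ionomycin or IFN-γ; supernatant cytokines measured by 13-plex FACS 48 h and 72 h after stimulation. In another run, PMA/Ionomycin-stimulated cells received compounds at 10^−7, 10^−9 and 10^−11 M, with IFN-γ, IL-17 and IL-10 measured by Luminex.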

[3] = system: human keratinocyte cell line (HaCaT); assay: Cytokine secretion on protein level in activated human keratinocyte cell line HaCaT (13-plex FACS / Luminex, supernatant); format: cell-based; conditions: substance 10^−9M
Summary of the method: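 Stimulus: PMA/Ionomycin or IFN-γ, 48 h; cells: HaCaT or human peripheral-blood T-cells; tripeptide treatment; readout: supernatant cytokines via 13-plex FACS or Luminex, 48–72 h post-stimulation.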

[4] = primary human T-cells stimulated with IFN-γ
[5] = primary human T-cells stimulated with PBS
[6] = primary human T-cells stimulated with PMA/Ionomycin
[7] = primary murine T-cells stimulated with IFN-γ
[8] = primary murine T-cells stimulated with PBS
[9] = primary murine T-cells stimulated with PMA/Ionomycin
[10] = HaCaT stimulated with PMA/Ionomycin

With “N^α,N^α-dimethyl-(L)-Phe-(D)-Pro-N^α-methyl-(L)-Thr-OH [Example 7]” the “secretion / expression of pro-inflammatory cytokines (supernatant)” value ([1]; activated primary human T-cells) was “immunomodulatory effects were seen”, the IL-1 cytokine concentration [1, 4] was 0 pg/mL and the IL-2 cytokine concentration [1, 4] was 0 pg/mL. For the same substance, the IL-4 cytokine concentration [1, 4] was 83.34 pg/mL, the IL-5 cytokine concentration [1, 4] was 0 pg/mL and the IL-6 cytokine concentration [1, 4] was 56.38 pg/mL. It also gave an IL-9 cytokine concentration [1, 4] of 0 pg/mL, an IL-10 cytokine concentration [1, 4] of 69.21 pg/mL and an IL-12p70 cytokine concentration [1, 4] of 0 pg/mL. For the same substance, the IL-13 cytokine concentration [1, 4] was 59.7 pg/mL, the IL-17 cytokine concentration [1, 4] was 0 pg/mL and the IL-22 cytokine concentration [1, 4] was 0 pg/mL. For the same substance, the TNF-α cytokine concentration [1, 4] was 0 pg/mL, the IL-1 cytokine concentration [1, 5] was 154.31 pg/mL and the IL-2 cytokine concentration [1, 5] was 126.59 pg/mL. The IL-4 cytokine concentration [1, 5] was 0 pg/mL, the IL-5 cytokine concentration [1, 5] was 8.58 pg/mL and the IL-6 cytokine concentration [1, 5] was 122.64 pg/mL. It also gave an IL-9 cytokine concentration [1, 5] of 13.42 pg/mL, an IL-10 cytokine concentration [1, 5] of 121.25 pg/mL and an IL-12p70 cytokine concentration [1, 5] of 0 pg/mL. The IL-13 cytokine concentration [1, 5] was 0 pg/mL, the IL-17 cytokine concentration [1, 5] was 95.69 pg/mL and the IL-22 cytokine concentration [1, 5] was 0 pg/mL. For the same substance, the INF-α cytokine concentration [1, 5] was 69.17 pg/mL, the TNF-α cytokine concentration [1, 5] was 51.46 pg/mL and the IL-1 cytokine concentration [1, 6] was 508.96 pg/mL. For the same substance, the IL-2 cytokine concentration [1, 6] was 1650.58 pg/mL, the IL-4 cytokine concentration [1, 6] was 72.07 pg/mL and the IL-5 cytokine concentration [1, 6] was 357.88 pg/mL. It also gave an IL-6 cytokine concentration [1, 6] of 1100.07 pg/mL, an IL-9 cytokine concentration [1, 6] of 263.36 pg/mL and an IL-10 cytokine concentration [1, 6] of 842.93 pg/mL. It also gave an IL-12p70 cytokine concentration [1, 6] of 0 pg/mL, an IL-13 cytokine concentration [1, 6] of 991.61 pg/mL and an IL-17 cytokine concentration [1, 6] of 2611.96 pg/mL. For the same substance, the IL-22 cytokine concentration [1, 6] was 0 pg/mL, the INF-α cytokine concentration [1, 6] was 6989.26 pg/mL and the TNF-α cytokine concentration [1, 6] was 2062.57 pg/mL. For the same substance, the “secretion / expression of pro-inflammatory cytokines (supernatant)” value ([2]; activated primary murine T-cells) was “immunomodulatory effects were seen”, the IL-1 cytokine concentration [2, 7] was 88.23 pg/mL and the IL-2 cytokine concentration [2, 7] was 98.22 pg/mL. It also gave an IL-4 cytokine concentration [2, 7] of 40.87 pg/mL, an IL-5 cytokine concentration [2, 7] of 265.4 pg/mL and an IL-6 cytokine concentration [2, 7] of 123.98 pg/mL. For the same substance, the IL-10 cytokine concentration [2, 7] was 1199.53 pg/mL, the IL-13 cytokine concentration [2, 7] was 0 pg/mL and the IL-17 cytokine concentration [2, 7] was 84.26 pg/mL. It also gave an IL-21 cytokine concentration [2, 7] of 0 pg/mL, an IL-22 cytokine concentration [2, 7] of 50.37 pg/mL and an IL-27 cytokine concentration [2, 7] of 0 pg/mL. The TNF-α cytokine concentration [2, 7] was 25.58 pg/mL, the IFN-γ cytokine concentration [2, 8] was 0 pg/mL and the IL-1 cytokine concentration [2, 8] was 62.38 pg/mL. The IL-2 cytokine concentration [2, 8] was 137.05 pg/mL, the IL-4 cytokine concentration [2, 8] was 60.56 pg/mL and the IL-5 cytokine concentration [2, 8] was 317.47 pg/mL. For the same substance, the IL-6 cytokine concentration [2, 8] was 129.26 pg/mL, the IL-10 cytokine concentration [2, 8] was 1283.71 pg/mL and the IL-13 cytokine concentration [2, 8] was 0 pg/mL. The IL-17 cytokine concentration [2, 8] was 0 pg/mL, the IL-21 cytokine concentration [2, 8] was 0 pg/mL and the IL-22 cytokine concentration [2, 8] was 15.86 pg/mL. It also gave an IL-27 cytokine concentration [2, 8] of 61.43 pg/mL, a TNF-α cytokine concentration [2, 8] of 53.67 pg/mL and an IFN-γ cytokine concentration [2, 9] of 1916.21 pg/mL. For the same substance, the IL-1 cytokine concentration [2, 9] was 154.26 pg/mL, the IL-2 cytokine concentration [2, 9] was 99.71 pg/mL and the IL-4 cytokine concentration [2, 9] was 99.12 pg/mL. For the same substance, the IL-5 cytokine concentration [2, 9] was 246.42 pg/mL, the IL-6 cytokine concentration [2, 9] was 184.98 pg/mL and the IL-10 cytokine concentration [2, 9] was 1233.22 pg/mL. It also gave an IL-13 cytokine concentration [2, 9] of 0 pg/mL, an IL-17 cytokine concentration [2, 9] of 67.92 pg/mL and an IL-21 cytokine concentration [2, 9] of 0 pg/mL. The IL-22 cytokine concentration [2, 9] was 71.09 pg/mL, the IL-27 cytokine concentration [2, 9] was 90.15 pg/mL and the TNF-α cytokine concentration [2, 9] was 40.87 pg/mL. It also gave an IL-1 cytokine concentration ([3]; HaCaT stimulated with IFN-γ) of 109.65 pg/mL, an IL-2 cytokine concentration ([3]; HaCaT stimulated with IFN-γ) of 267.78 pg/mL and an IL-4 cytokine concentration ([3]; HaCaT stimulated with IFN-γ) of 0 pg/mL. It also gave an IL-5 cytokine concentration ([3]; HaCaT stimulated with IFN-γ) of 0 pg/mL, an IL-6 cytokine concentration ([3]; HaCaT stimulated with IFN-γ) of 470.44 pg/mL and an IL-9 cytokine concentration ([3]; HaCaT stimulated with IFN-γ) of 14.88 pg/mL. It also gave an IL-10 cytokine concentration ([3]; HaCaT stimulated with IFN-γ) of 0 pg/mL, an IL-12p70 cytokine concentration ([3]; HaCaT stimulated with IFN-γ) of 0 pg/mL and an IL-13 cytokine concentration ([3]; HaCaT stimulated with IFN-γ) of 1843.69 pg/mL. The IL-17 cytokine concentration ([3]; HaCaT stimulated with IFN-γ) was 202.45 pg/mL, the IL-22 cytokine concentration ([3]; HaCaT stimulated with IFN-γ) was 0 pg/mL and the TNF-α cytokine concentration ([3]; HaCaT stimulated with IFN-γ) was 0 pg/mL. It also gave an IFN-γ cytokine concentration ([3]; HaCaT stimulated with PBS) of 0 pg/mL, an IL-1 cytokine concentration ([3]; HaCaT stimulated with PBS) of 181.03 pg/mL and an IL-2 cytokine concentration ([3]; HaCaT stimulated with PBS) of 180.91 pg/mL. It also gave an IL-4 cytokine concentration ([3]; HaCaT stimulated with PBS) of 0 pg/mL, an IL-5 cytokine concentration ([3]; HaCaT stimulated with PBS) of 113.28 pg/mL and an IL-6 cytokine concentration ([3]; HaCaT stimulated with PBS) of 119.59 pg/mL. For the same substance, the IL-9 cytokine concentration ([3]; HaCaT stimulated with PBS) was 0 pg/mL, the IL-10 cytokine concentration ([3]; HaCaT stimulated with PBS) was 0 pg/mL and the IL-12p70 cytokine concentration ([3]; HaCaT stimulated with PBS) was 0 pg/mL. The IL-13 cytokine concentration ([3]; HaCaT stimulated with PBS) was 1910.22 pg/mL, the IL-17 cytokine concentration ([3]; HaCaT stimulated with PBS) was 0 pg/mL and the IL-22 cytokine concentration ([3]; HaCaT stimulated with PBS) was 0 pg/mL. The TNF-α cytokine concentration ([3]; HaCaT stimulated with PBS) was 21.66 pg/mL, the IFN-γ cytokine concentration [3, 10] was 450.42 pg/mL and the IL-1 cytokine concentration [3, 10] was 0 pg/mL. The IL-2 cytokine concentration [3, 10] was 218.82 pg/mL, the IL-4 cytokine concentration [3, 10] was 112.94 pg/mL and the IL-5 cytokine concentration [3, 10] was 88.67 pg/mL. The IL-6 cytokine concentration [3, 10] was 359.17 pg/mL, the IL-9 cytokine concentration [3, 10] was 14.57 pg/mL and the IL-10 cytokine concentration [3, 10] was 64.01 pg/mL. For the same substance, the IL-12p70 cytokine concentration [3, 10] was 0 pg/mL, the IL-13 cytokine concentration [3, 10] was 1877.03 pg/mL and the IL-17 cytokine concentration [3, 10] was 209.12 pg/mL. It also gave an IL-22 cytokine concentration [3, 10] of 0 pg/mL and a TNF-α cytokine concentration [3, 10] of 0 pg/mL.
